Experimental data taken from US20100029702A1, “Method For Identification of Compound Having Anti-Anxiety Effect” (priority 2006, published 2010).

Test system: CHO-K1 cell strain
Experiment: Changes in intracellular Ca2+ concentration in CHO-K1 host cell not transfected (negative control)
Format: cell-based, Chinese hamster
Procedure: The specific method for measuring changes in the intracellular Ca^2+ concentration in the HA-ph01207#10-6 cell strain induced by CCK-8S (SEQ ID NO: 14) and the results are described below. The HA-ph01207#10-6 cell strain was seeded on a 96-well plate (a plate with a black wall and a transparent bottom) at a cell count of 2×10^4/100 μL medium/well and cultured at 37° C. in the presence of 5% CO2. As a medium, DMEM/F12 (Gibco) containing 10% fetal calf serum (Moregate) was used. On the following day, 50 μL of the medium was removed from each well, 50 μL of a loading buffer was added to each well, and the mixture was reacted at room temperature for 1.5 h, so that a fluorescent dye contained in the loading buffer should be taken up into the cell. The loading buffer was prepared by dissolving component A of the FLIPR Calcium 3 Assay Kit (Molecular Device) in a solution obtained by adding 0.1 mL of 500 mM probenecid (Sigma) to 9.9 mL of component B. After reaction, changes over time in the fluorescence intensity in each well after addition of CCK-8S (Peptide Institute, Inc.) were measured using the FLEX station (Molecular Device). Furthermore, similar measurement was performed for CCK-8NS (Peptide Institute, Inc.) and CCK-4 (Peptide Institute, Inc.). 0.52 mg of CCK-8S (SEQ ID NO: 14) was dissolved in 4.5 mL of 1% NaHCO3 (Wako) to prepare a solution having 0.1 mM concentration. 0.53 mg of CCK-8NS was dissolved in 0.50 mL of dimethyl sulfoxide (DMSO, Sigma), and then 4.50 mL of redistilled water H2O was added to prepare a solution having 0.1 mM concentration. 0.54 mg of CCK-4 was dissolved in 0.46 mL of DMSO, 4.09 mL of redistilled water was added to prepare a solution having 0.2 mM concentration. CCK-8S (SEQ ID NO: 14), CCK-8NS, and CCK-4 were diluted in phosphate-buffered physiological saline (PBS) to prepare 5 nM solutions, and 25 μL each was added (final concentration 1 nM) to perform measurement. As a positive control for including an increase in the intracellular Ca^2+ concentration, A23187 (Calbiochem) was used at a final concentration of 10 μM. As a negative control, the CHO-K1 cell strain used to prepare the HA-ph01207#10-6 cell strain as a host was used. Since the CHO-K1 cell strain was not transfected with the ph01207-expressing vector, the ph01207 gene product was not expressed.
Changes in the intracellular calcium (Ca^2+) concentration induced by CCK-8S were measured by a method similar to the method described in Example 5 using the 7tmHR stably-expressing strain and the hk01941 stably-expressing strain prepared in Example 7. As a control, a host cell not transfected with the 7tmHR-expressing vector or the hk01941-expressing vector was also used.
Cells were seeded in a 96-well plate (a plate with a black wall and a transparent bottom) at a cell count of 3×10^4/100 μL of medium/well and cultured overnight at 37° C. in a 5% CO2 incubator. On the following day, 50 μL of the medium was removed from each well, […] of a loading buffer was added to each well, and the mixture was reacted at room temperature for 1 h, so that a fluorescent dye contained in the loading buffer was taken up into the cell. The loading buffer was prepared by a method similar to the method described in Example 5. After reaction, changes over time in the fluorescence intensity in each well after addition of CCK-8S were measured using the FLEX station (Molecular Device). CCK-8S was used at a final concentration of 10 pM to 1 μM. Furthermore, as a positive control of the assay, A23187 was used at a final concentration of 20 μM.
Cells were seeded in a 96-well plate (a plate with a black wall and a transparent bottom) at a cell count of 3×10^4/100 μL of medium/well and cultured overnight at 37° C. in a 5% CO2 incubator. […]

| Molecule | Change in intracellular Ca2+ concentration (fluorescence intensity) (CHO-K1 not transfected, peptide 1 nM (Example 5)) | Change in intracellular calcium concentration after addition of CCK-8S (host cell not transfected with the expressing vector (Examples 8, 9)) | Change in intracellular Ca2+ concentration (fluorescence intensity) (CHO-K1 not transfected, A23187 10 μM (Example 5)) | Change in intracellular Ca2+ concentration (fluorescence intensity) (host cell CHO-K1 not transfected, A23187 20 μM (Examples 8, 9)) |
| --- | --- | --- | --- | --- |
| cholecystokinin octapeptide sulfated form [CCK-8S] | not increased | no change | – | – |
| CNc1ccc2oc(C[C@H]3O[C@@]4(CC[C@H]3C)O[C@H]([C@H](C)C(=O)c3ccc[nH]3)[C@H](C)C[C@H]4C)nc2c1C(=O)O [A23187] | – | – | increased | increased |
